Data on one compound can be found in paper PMC7866863, “A Cellular Assay for the Identification and Characterization of Connexin Gap Junction Modulators” (International Journal of Molecular Sciences, 2021).

For this test, the target named is T1, Cx43 (connexin 43 gap junction) (Mus musculus, UniProt P23242).
T1 construct: gene Gja1; mouse Cx43 coding region, recombinantly expressed in HeLa donor and biosensor cells
The experiment in a line: HeLa coculture cAMP-transfer GloSensor luminescence assay for Cx43 gap junctions. The format is cell-based.

T1 sequence (P23242 2-382): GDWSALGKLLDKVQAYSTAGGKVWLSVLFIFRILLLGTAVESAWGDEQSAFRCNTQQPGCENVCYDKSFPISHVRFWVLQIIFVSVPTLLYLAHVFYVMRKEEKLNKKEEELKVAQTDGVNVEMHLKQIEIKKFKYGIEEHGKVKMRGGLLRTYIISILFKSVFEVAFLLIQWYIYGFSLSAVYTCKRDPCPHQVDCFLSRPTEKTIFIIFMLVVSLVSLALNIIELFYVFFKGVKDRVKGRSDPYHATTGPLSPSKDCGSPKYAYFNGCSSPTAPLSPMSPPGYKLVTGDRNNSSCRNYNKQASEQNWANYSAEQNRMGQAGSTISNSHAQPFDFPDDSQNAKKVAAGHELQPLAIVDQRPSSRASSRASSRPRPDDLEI

Compound `CC1(C)[C@@H](OC(=O)CCC(=O)O)CC[C@]2(C)[C@H]3C(=O)C=C4[C@@H]5C[C@@](C)(C(=O)O)CC[C@]5(C)CC[C@@]4(C)[C@]3(C)CC[C@@H]12` [carbenoxolone] returned an IC50 of 44.5 ± 4.8 µM.
